Test results: the supplement of paper PMC10627819

System: S. pneumoniae D39V
Test: fitness (endpoint OD595 vs no drug) (fraction); higher = more growth
How it was run: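 Fitness was measured as bacterial growth in 384-well plates inoculated at OD595 0.01 (30 µl, or 55 µl for S. pneumoniae). Media were TSB, LB Lennox or CY, at 37 °C. OD595 was read every 30 min for 14 h and background-subtracted against the first reading. Fitness is OD595 at the transition into stationary phase divided by the robust mean of no-drug control wells, capped at 1.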
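Note: OD595 on entry to stationary phase over no-drug wells; at most 1.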

CC(=O)Oc1ccccc1C(=O)O [Acetylsalicylic acid] + CN[C@@H]1[C@H](O[C@H]2[C@H](O[C@H]3[C@H](O)[C@@H](O)[C@H](N=C(N)N)[C@@H](O)[C@@H]3N=C(N)N)O[C@@H](C)[C@]2(O)C=O)O[C@@H](CO)[C@H](O)[C@H]1O [Streptomycin]
fitness
Conditions | first compound 250 µg/mL | first compound 500 µg/mL | first compound 1000 µg/mL
partner 2 µg/mL | 0.954 | 0.928 | 0.806
partner 4 µg/mL | 0.977 | 0.892 | –
partner 8 µg/mL | 0.929 | 0.869 | –

partner 16 µg/mL, one replicate
Conditions | fitness
first compound 250 µg/mL | 0.772
first compound 500 µg/mL | 0.605
first compound 1000 µg/mL | 0.159

CN(C)[C@@H]1C(O)=C(C(N)=O)C(=O)[C@@]2(O)C(O)=C3C(=O)c4c(O)ccc(Cl)c4[C@@](C)(O)[C@H]3C[C@@H]12 [Chlortetracycline] + Clc1ccc(COC(Cn2ccnc2)c2ccc(Cl)cc2Cl)c(Cl)c1 [Miconazole]
fitness
Conditions | first compound 0.012 µg/mL | first compound 0.024 µg/mL | first compound 0.048 µg/mL | first compound 0.375 µg/mL | first compound 0.75 µg/mL | first compound 1.5 µg/mL
partner 1.073 µg/mL | 0.995 | 0.926 | 0.907 | – | – | –
partner 1.25 µg/mL | – | – | – | 0.0819 | 0.0494 | 0.0765
partner 2.145 µg/mL | 0.971 | 0.935 | 0.879 | – | – | –
partner 2.5 µg/mL | – | – | – | 0.104 | 0.0646 | 0.0895
partner 4.29 µg/mL | 0.913 | 0.883 | 0.793 | – | – | –
partner 5 µg/mL | – | – | – | 0.0525 | 0.0422 | 0.0647

CN(C)[C@@H]1C(O)=C(C(N)=O)C(=O)[C@@]2(O)C(O)=C3C(=O)c4c(O)ccc(Cl)c4[C@@](C)(O)[C@H]3C[C@@H]12 [Chlortetracycline] + O=C1CN(/N=C/c2ccc([N+](=O)[O-])o2)C(=O)N1 [Nitrofurantoin]
fitness
Conditions | first compound 0.012 µg/mL | first compound 0.024 µg/mL | first compound 0.048 µg/mL | first compound 0.375 µg/mL | first compound 0.75 µg/mL | first compound 1.5 µg/mL
partner 1.285 µg/mL | 0.958 | 0.896 | 0.842 | – | – | –
partner 2 µg/mL | – | – | – | 0.034 | 0.0485 | 0.0311
partner 2.57 µg/mL | 0.96 | 0.951 | 0.836 | – | – | –
partner 4 µg/mL | – | – | – | 0.0275 | 0.0381 | 0.0293
partner 8 µg/mL | – | – | – | 0.0328 | 0.0386 | 0.0233

partner 5.14 µg/mL, one replicate
Conditions | fitness
first compound 0.012 µg/mL | 0.862
first compound 0.024 µg/mL | 0.898
first compound 0.048 µg/mL | 0.762

C[C@H]1c2cccc(O)c2C(=O)C2=C(O)[C@]3(O)C(=O)C(C(N)=O)=C(O)[C@@H](N(C)C)[C@@H]3[C@@H](O)[C@@H]21 [Doxycycline] + CO[C@@]12[C@H](COC(N)=O)C3=C(C(=O)C(C)=C(N)C3=O)N1C[C@@H]1N[C@@H]12 [Mitomycin C]
fitness, one replicate
Conditions | first compound 0.003875 µg/mL | first compound 0.00775 µg/mL | first compound 0.031 µg/mL | first compound 0.062 µg/mL
partner 0.002 µg/mL | 0.897 | 0.823 | 0.833 | 0.64
partner 0.004 µg/mL | 0.848 | 0.828 | 0.783 | 0.616
partner 0.008 µg/mL | 0.615 | 0.622 | 0.622 | 0.456

fitness
Conditions | partner 0.001075 µg/mL | partner 0.002 µg/mL | partner 0.00215 µg/mL | partner 0.004 µg/mL | partner 0.0043 µg/mL | partner 0.008 µg/mL
first compound 0.0155 µg/mL | 0.863 | 0.82 | 0.819 | 0.792 | 0.717 | 0.699
first compound 0.031 µg/mL | 0.816 | – | 0.814 | – | 0.649 | –
first compound 0.062 µg/mL | 0.743 | – | 0.771 | – | 0.63 | –

CC(=O)Oc1ccccc1C(=O)O [Acetylsalicylic acid] + CC1=C(C(=O)O)N2C(=O)[C@@H](NC(=O)[C@H](N)c3ccccc3)[C@H]2SC1 [Cephalexin]
fitness, one replicate
Conditions | first compound 250 µg/mL | first compound 500 µg/mL | first compound 1000 µg/mL
partner 0.125 µg/mL | 0.955 | 0.996 | 0.935
partner 0.25 µg/mL | 0.931 | 0.961 | 0.913
partner 0.5 µg/mL | 0.923 | 0.932 | 0.92

fitness
Conditions | first compound 250 µg/mL | first compound 500 µg/mL | first compound 1000 µg/mL
partner 1 µg/mL | 0.902 | 0.89 | 0.727
partner 2 µg/mL | 0.611 | – | 0.391
partner 4 µg/mL | 0.0549 | 0.0473 | 0.0319

CC(=O)Oc1ccccc1C(=O)O [Acetylsalicylic acid] + C/C(=C\C(=O)OCCCCCCCCC(=O)O)C[C@@H]1OC[C@H](C[C@@H]2O[C@H]2[C@@H](C)[C@H](C)O)[C@@H](O)[C@H]1O [Pseudomonic acid]
fitness
Conditions | first compound 250 µg/mL | first compound 500 µg/mL | first compound 1000 µg/mL
partner 0.03 µg/mL | 0.933 | 0.9 | 0.825
partner 0.06 µg/mL | 0.822 | 0.723 | –
partner 0.12 µg/mL | 0.542 | 0.488 | 0.383

CC(=O)Oc1ccccc1C(=O)O [Acetylsalicylic acid] + Clc1ccc(COC(Cn2ccnc2)c2ccc(Cl)cc2Cl)c(Cl)c1 [Miconazole]
fitness
Conditions | partner 1.073 µg/mL | partner 1.25 µg/mL | partner 2.145 µg/mL | partner 2.5 µg/mL | partner 4.29 µg/mL | partner 5 µg/mL
first compound 250 µg/mL | ≥ 1 | 0.902 | 0.943 | 0.863 | 0.9 | 0.937
first compound 500 µg/mL | ≥ 1 | 0.816 | 0.918 | 0.772 | 0.858 | 0.844
first compound 1000 µg/mL | ≥ 1 | 0.643 | 0.957 | 0.589 | 0.875 | 0.656
